Test results taken from patent US20210395239A1 (Hoffmann-La Roche Inc., priority 2018, published 2021).

Columns and labels:
[1] = target: T1, CYP3A4 (Homo sapiens, UniProt P08684); test: CYP inhibition assay in human liver microsome, CYP3A4; type: in vitro ADME; details: human, human liver microsomes, probe midazolam 5 μM, substrate midazolam 5 μM, third value of 2C9/2D6/3A4
T1 construct: tissue BD-Gentest 452117; host or cells: human liver microsomes
Summary of the method: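 Pooled human liver microsomes with a substrate for each CYP were incubated with compound at 37 °C after NADPH addition, for 5 min (CYP2D6: 10 min), then quenched with acetonitrile containing labelled metabolite standards. Metabolite/internal-standard peak area ratios were measured by RapidFire MS/MS. % inhibition was scaled between DMSO and standard-inhibitor controls.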

[2] = target: T2, hTLR9 (Homo sapiens, UniProt Q9NR96); test: HEK293-Blue-hTLR-9 cells assay (SEAP reporter, ODN2006 stimulation); type: cell-based; parameters: host or cells: HEK293 (HEK-Blue hTLR9); details: HEK293-Blue-hTLR9 cells, ODN2006, 20 hrs; read-out: HEK/hTLR9 IC50
T2 sequence (Q9NR96 26-1032): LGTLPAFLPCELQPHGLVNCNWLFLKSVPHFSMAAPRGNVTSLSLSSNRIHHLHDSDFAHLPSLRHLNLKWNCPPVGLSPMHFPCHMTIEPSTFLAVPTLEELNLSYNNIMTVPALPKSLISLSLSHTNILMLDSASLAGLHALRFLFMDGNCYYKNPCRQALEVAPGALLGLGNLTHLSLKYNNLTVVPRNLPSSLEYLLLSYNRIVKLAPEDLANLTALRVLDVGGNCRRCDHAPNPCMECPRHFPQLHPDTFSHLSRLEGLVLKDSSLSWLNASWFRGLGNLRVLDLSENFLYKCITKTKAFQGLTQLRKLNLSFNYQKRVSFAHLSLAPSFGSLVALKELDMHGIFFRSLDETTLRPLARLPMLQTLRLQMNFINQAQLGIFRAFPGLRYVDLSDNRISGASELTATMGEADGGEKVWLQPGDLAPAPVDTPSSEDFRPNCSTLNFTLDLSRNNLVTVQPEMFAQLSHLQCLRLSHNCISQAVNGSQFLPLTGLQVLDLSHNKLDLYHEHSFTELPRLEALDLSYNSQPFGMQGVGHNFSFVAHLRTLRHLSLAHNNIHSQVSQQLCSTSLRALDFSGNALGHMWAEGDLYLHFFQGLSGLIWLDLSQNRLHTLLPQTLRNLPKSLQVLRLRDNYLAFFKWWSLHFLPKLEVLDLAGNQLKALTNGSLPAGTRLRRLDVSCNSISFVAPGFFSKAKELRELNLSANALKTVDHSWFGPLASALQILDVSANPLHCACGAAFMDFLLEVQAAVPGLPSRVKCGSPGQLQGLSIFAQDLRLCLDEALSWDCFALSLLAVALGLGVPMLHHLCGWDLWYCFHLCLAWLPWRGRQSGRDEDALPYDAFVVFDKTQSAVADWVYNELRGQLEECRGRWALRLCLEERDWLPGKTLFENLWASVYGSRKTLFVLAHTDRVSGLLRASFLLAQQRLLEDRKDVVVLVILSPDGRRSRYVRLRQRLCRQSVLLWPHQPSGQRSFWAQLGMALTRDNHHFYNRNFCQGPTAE
Summary of the method: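 Antagonism read as lowered SEAP reporter absorbance (620–655 nm, QUANTI-Blue, 2 h, 37 °C) in supernatants. Before that, ODN2006-stimulated HEK293-Blue cells stably expressing human TLR9 were exposed to compound dilutions at 1% final DMSO for 20 h at 37 °C.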

T1 sequence (P08684 whole entry): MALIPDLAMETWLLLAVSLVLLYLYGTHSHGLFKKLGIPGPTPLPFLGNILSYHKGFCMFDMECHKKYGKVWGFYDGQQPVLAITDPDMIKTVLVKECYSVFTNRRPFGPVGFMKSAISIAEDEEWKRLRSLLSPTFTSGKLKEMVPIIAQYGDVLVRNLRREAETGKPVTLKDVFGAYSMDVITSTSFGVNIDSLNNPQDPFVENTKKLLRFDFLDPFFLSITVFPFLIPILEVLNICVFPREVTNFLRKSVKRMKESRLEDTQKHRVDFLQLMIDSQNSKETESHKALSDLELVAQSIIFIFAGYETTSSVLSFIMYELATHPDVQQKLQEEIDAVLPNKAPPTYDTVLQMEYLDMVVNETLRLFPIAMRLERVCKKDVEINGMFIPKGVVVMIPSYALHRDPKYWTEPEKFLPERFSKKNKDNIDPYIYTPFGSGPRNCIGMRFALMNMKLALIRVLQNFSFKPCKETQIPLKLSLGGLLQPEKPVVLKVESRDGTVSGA

| SMILES | inhibition at 5 min, 10 µM [1] | IC50 [2] |
| --- | --- | --- |
| C[C@@H]1CN(c2ccc(C#N)c3ncccc23)C[C@H](CN2CCC(C#N)(c3ccc(N4CCNCC4)cc3)CC2)O1 [Example 11, 5-[(2S,6R)-2-[[4-cyano-4-(4-piperazin-1-ylphenyl)-1-piperidyl]methyl]-6-methyl-morpholin-4-yl]quinoline-8-carbonitrile] | 11% | 92 nM |
| C[C@@H]1CN(c2ccc(C#N)c3ncccc23)C[C@H](CN2CCN(c3ccc([C@@H]4CNCCO4)cc3)CC2)O1 [Example 19, 5-[(2R,6S)-2-methyl-6-[[4-[4-[(2R)-morpholin-2-yl]phenyl]piperazin-1-yl]methyl]morpholin-4-yl]quinoline-8-carbonitrile] | 12.5% | 91 nM |
| C[C@@H]1CN(c2ccc(C#N)c3ncccc23)C[C@H](CN2CCN(c3cncc(N4CCNCC4)c3)CC2)O1 [Example 7, 5-[(2R,6S)-2-methyl-6-[[4-(5-piperazin-1-yl-3-pyridyl)piperazin-1-yl]methyl]morpholin-4-yl]quinoline-8-carbonitrile] | 15.5% | 51 nM |
| C[C@@H]1CN(c2ccc(C#N)c3ncccc23)C[C@H](CN2CCN(c3ccc(N4CCNCC4)cn3)CC2)O1 [Example 8, 5-[(2R,6S)-2-methyl-6-[[4-(5-piperazin-1-yl-2-pyridyl)piperazin-1-yl]methyl]morpholin-4-yl]quinoline-8-carbonitrile] | -3.5% | 93 nM |
| C[C@@H]1CN(c2ccc(C#N)c3ncccc23)C[C@H](CN2CCN(c3ccnc(N4CCNCC4)n3)CC2)O1 [Example 15, 5-[(2R,6S)-2-methyl-6-[[4-(2-piperazin-1-ylpyrimidin-4-yl)piperazin-1-yl]methyl]morpholin-4-yl]quinoline-8-carbonitrile] | 11.5% | 36 nM |

Molecules with a lower IC50 [2], results first:

| inhibition at 5 min, 10 µM [1] | IC50 [2] | SMILES |
| --- | --- | --- |
| 7.5% | 32 nM | C[C@@H]1CN(c2ccc(C#N)c3ncccc23)C[C@H](CN2CCN(c3cc(N4CCNCC4)ccn3)CC2)O1 [Example 9, 5-[(2R,6S)-2-methyl-6-[[4-(4-piperazin-1-yl-2-pyridyl)piperazin-1-yl]methyl]morpholin-4-yl]quinoline-8-carbonitrile] |
| 4% | 32 nM | C[C@@H]1CN(c2ccc(C#N)c3ncccc23)C[C@H](CN2CCN(c3ccnc(N[C@H]4CNC[C@H]4F)n3)CC2)O1 [Example 24, 5-[(2S,6R)-2-[[4-[2-[[(3S,4R)-4-fluoropyrrolidin-3-yl]amino]pyrimidin-4-yl]piperazin-1-yl]methyl]-6-methyl-morpholin-4-yl]quinoline-8-carbonitrile] |
| -2% | 32 nM | C[C@@H]1CN(c2ccc(C#N)c3ncccc23)C[C@H](CN2CCN(c3nccc(N4CCNCC4)n3)CC2)O1 [Example 14, 5-[(2R,6S)-2-methyl-6-[[4-(4-piperazin-1-ylpyrimidin-2-yl)piperazin-1-yl]methyl]morpholin-4-yl]quinoline-8-carbonitrile] |
